# Reference: ChEMBL document CHEMBL1201861, “Genomics of Drug Sensitity in Cancer screening data, Wellcome Trust Sanger Institute”
# Assays:
# Assay in all cases: cells
# COR-L88 = format: functional, cell-based, Homo sapiens; conditions: Homo sapiens, COR-L88;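 also: growth inhibition of COR-L88 cells, read out with a cell viability assay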
# Description: SANGER: Inhibition of human COR-L88 cell growth in a cell viability assay.
# MPP-89 = format: functional, cell-based, Homo sapiens; conditions: Homo sapiens, MPP-89;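 also: growth inhibition of human MPP-89 cells, read out with a cell viability assay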
# Description: SANGER: Inhibition of human MPP-89 cell growth in a cell viability assay.
# KNS-42 = format: functional, cell-based; conditions: Homo sapiens;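 also: growth inhibition of KNS-42 cells, read out with a cell viability assay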
# Description: SANGER: Inhibition of human KNS-42 cell growth in a cell viability assay.
# JVM-2 = format: functional, cell-based, Homo sapiens; conditions: Homo sapiens, JVM-2;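 also: growth inhibition of JVM-2 cells determined by a cell viability assay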
# Description: SANGER: Inhibition of human JVM-2 cell growth in a cell viability assay.
# EW-11 = format: functional, cell-based, Homo sapiens; conditions: Homo sapiens, EW-11;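 also: growth inhibition of human EW-11 cells, measured with a cell viability assay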
# Description: SANGER: Inhibition of human EW-11 cell growth in a cell viability assay.
# 697 = format: functional, cell-based, Homo sapiens; conditions: Homo sapiens
# Description: SANGER: Inhibition of human 697 cell growth in a cell viability assay.
# CTB-1 = format: functional, cell-based, Homo sapiens; conditions: Homo sapiens, CTB-1
# Description: SANGER: Inhibition of human CTB-1 cell growth in a cell viability assay.
# SNU-C2B = format: functional, cell-based; conditions: Homo sapiens;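 also: cell viability readout used to measure compound-driven suppression of SNU-C2B cell proliferation, IC50 marking half-maximal growth inhibition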
# Description: SANGER: Inhibition of human SNU-C2B cell growth in a cell viability assay.
# MZ7-mel = format: functional, cell-based, Homo sapiens; conditions: Homo sapiens, MZ7-mel;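 also: growth inhibition of human MZ7-mel cells, measured by a cell viability assay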
# Description: SANGER: Inhibition of human MZ7-mel cell growth in a cell viability assay.
# SK-N-FI = format: functional, cell-based, Homo sapiens; conditions: Homo sapiens, SK-N-FI;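 also: cell viability assay measuring growth inhibition of human SK-N-FI cells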
# Description: SANGER: Inhibition of human SK-N-FI cell growth in a cell viability assay.
# EM-2 = format: functional, cell-based, Homo sapiens; conditions: Homo sapiens, EM-2;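 also: growth inhibition of EM-2 cells, read out with a cell viability assay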
# Description: SANGER: Inhibition of human EM-2 cell growth in a cell viability assay.
# SNU-5 = format: functional, cell-based, Homo sapiens; conditions: Homo sapiens, SNU-5;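 also: cell viability readout used to measure growth inhibition in human NCI-SNU-5 cells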
# Description: SANGER: Inhibition of human NCI-SNU-5 cell growth in a cell viability assay.
# BT-474 = format: functional, cell-based, Homo sapiens; conditions: Homo sapiens, BT-474
# Description: SANGER: Inhibition of human BT-474 cell growth in a cell viability assay.
# NCI-H69 = format: functional, cell-based, Homo sapiens; conditions: Homo sapiens, NCI-H69;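 also: growth inhibition of the cell line, read out with a cell viability assay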
# Description: SANGER: Inhibition of human NCI-H69 cell growth in a cell viability assay.
# no-11 = format: functional, cell-based, Homo sapiens; conditions: Homo sapiens;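 also: growth inhibition of human NO-11 cells, read out with a cell viability assay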
# Description: SANGER: Inhibition of human no-11 cell growth in a cell viability assay.
# IA-LM = format: functional, cell-based; conditions: Homo sapiens;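 also: cell viability assay measuring growth inhibition of human IA-LM cells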
# Description: SANGER: Inhibition of human IA-LM cell growth in a cell viability assay.
# NCI-H1770 = format: functional, cell-based, Homo sapiens; conditions: Homo sapiens, NCI-H1770;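 also: growth inhibition of NCI-H1770 cells determined with a viability readout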
# Description: SANGER: Inhibition of human NCI-H1770 cell growth in a cell viability assay.
# GI-ME-N = format: functional, cell-based, Homo sapiens; conditions: Homo sapiens, GI-ME-N;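 also: growth inhibition of human GI-ME-N cells, read out with a cell viability assay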
# Description: SANGER: Inhibition of human GI-ME-N cell growth in a cell viability assay.
# A4-Fuk = format: functional, cell-based, Homo sapiens; conditions: Homo sapiens, A4-Fuk;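 also: growth inhibition of A4-Fuk cells, read out by a cell viability assay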
# Description: SANGER: Inhibition of human A4-Fuk cell growth in a cell viability assay.
# ES6 = format: functional, cell-based; conditions: Homo sapiens;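 also: growth inhibition of human ES6 cells, read out with a cell viability assay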
# Description: SANGER: Inhibition of human ES6 cell growth in a cell viability assay.
# DJM-1 = format: functional, cell-based, Homo sapiens; conditions: Homo sapiens, DJM-1;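 also: growth inhibition of human DJM-1 cells, read out by a cell viability assay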
# Description: SANGER: Inhibition of human DJM-1 cell growth in a cell viability assay.
# CTV-1 = format: functional, cell-based, Homo sapiens; conditions: Homo sapiens, CTV-1;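 also: growth inhibition of the cell line, read out with a cell viability assay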
# Description: SANGER: Inhibition of human CTV-1 cell growth in a cell viability assay.
# Lu-65 = format: functional, cell-based, Homo sapiens; conditions: Homo sapiens, Lu-65;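 also: growth inhibition of Lu-65 cancer cells, read out by a cell viability assay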
# Description: SANGER: Inhibition of human LU-65 cell growth in a cell viability assay.
# COLO-800 = format: functional, cell-based, Homo sapiens; conditions: Homo sapiens, COLO-800;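 also: growth inhibition of COLO-800 cells, read out with a cell viability assay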
# Description: SANGER: Inhibition of human COLO-800 cell growth in a cell viability assay.
# KLE = format: functional, cell-based; conditions: Homo sapiens;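 also: growth inhibition of human KLE cells, read out with a cell viability assay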
# Description: SANGER: Inhibition of human KLE cell growth in a cell viability assay.
# SK-N-DZ = format: functional, cell-based, Homo sapiens; conditions: Homo sapiens, SK-N-DZ; read-out: IC50;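 also: growth inhibition of the cancer cell line, read out through a viability assay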
# Description: SANGER: Inhibition of human SK-N-DZ cell growth in a cell viability assay.
# NCI-H23 = format: functional, cell-based, Homo sapiens; conditions: Homo sapiens, NCI-H23;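 also: cell viability assay measuring growth inhibition of NCI-H23 cells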
# Description: SANGER: Inhibition of human NCI-H23 cell growth in a cell viability assay.
# SNU1 = format: functional, cell-based, Homo sapiens; conditions: Homo sapiens, SNU1;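 also: growth inhibition of human NCI-SNU-1 cells, measured with a cell viability assay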
# Description: SANGER: Inhibition of human NCI-SNU-1 cell growth in a cell viability assay.
# UACC-257 = format: functional, cell-based, Homo sapiens; conditions: Homo sapiens, UACC-257
# Description: SANGER: Inhibition of human UACC-257 cell growth in a cell viability assay.
# SF-539 = format: functional, cell-based, Homo sapiens; conditions: Homo sapiens, SF-539;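 also: Read-out is a cell viability assay, with IC50 reflecting inhibition of cell growth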
# Description: SANGER: Inhibition of human SF539 cell growth in a cell viability assay.
# SW872 = format: functional, cell-based, Homo sapiens; conditions: Homo sapiens, SW872;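 also: growth inhibition of SW872 cells, read out by a viability assay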
# Description: SANGER: Inhibition of human SW872 cell growth in a cell viability assay.
# MS-1 = format: functional, cell-based, Homo sapiens; conditions: Homo sapiens, MS-1;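 also: growth inhibition of MS-1 cells, read out by cell viability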
# Description: SANGER: Inhibition of human MS-1 cell growth in a cell viability assay.
# LS-411N = format: functional, cell-based, Homo sapiens; conditions: Homo sapiens, LS-411N
# J-RT3-T3-5 = format: functional, cell-based, Homo sapiens; conditions: Homo sapiens, J-RT3-T3-5;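 also: cell viability assay measuring growth inhibition of human J-RT3-T3-5 cells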
# Description: SANGER: Inhibition of human J-RT3-T3-5 cell growth in a cell viability assay.
# NH-12 = format: functional, cell-based, Homo sapiens; conditions: Homo sapiens, NH-12;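 also: growth inhibition of NH-12 cells, read out with a cell viability assay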
# Description: SANGER: Inhibition of human NH-12 cell growth in a cell viability assay.
# IST-SL1 = format: functional, cell-based, Homo sapiens; conditions: Homo sapiens, IST-SL1;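 also: growth inhibition of human IST-SL1 cells, read out with a cell viability assay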
# Description: SANGER: Inhibition of human IST-SL1 cell growth in a cell viability assay.
# MFM-223 = format: functional, cell-based, Homo sapiens; conditions: Homo sapiens, MFM-223
# Description: SANGER: Inhibition of human MFM-223 cell growth in a cell viability assay.
# ONS-76 = format: functional, cell-based, Homo sapiens; conditions: Homo sapiens, ONS-76;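 also: growth inhibition of human ONS-76 cells, read out with a cell viability assay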
# Description: SANGER: Inhibition of human ONS-76 cell growth in a cell viability assay.
# U-266 = format: functional, cell-based, Homo sapiens; conditions: Homo sapiens, U-266
# Description: SANGER: Inhibition of human U-266 cell growth in a cell viability assay.
# LS-1034 = format: functional, cell-based, Homo sapiens; conditions: Homo sapiens, LS-1034
# Description: SANGER: Inhibition of human LS-1034 cell growth in a cell viability assay.
# COLO-668 = format: functional, cell-based, Homo sapiens; conditions: Homo sapiens, COLO-668
# Description: SANGER: Inhibition of human COLO-668 cell growth in a cell viability assay.
# RPMI-8866 = format: functional, cell-based, Homo sapiens; conditions: Homo sapiens, RPMI-8866
# Description: SANGER: Inhibition of human RPMI-8866 cell growth in a cell viability assay.
# NB10 = format: functional, cell-based, Homo sapiens; conditions: Homo sapiens, NB10;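 also: growth inhibition of NB10 cells, read out by a cell viability assay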
# Description: SANGER: Inhibition of human NB10 cell growth in a cell viability assay.
# NCI-H1650 = format: functional, cell-based, Homo sapiens; conditions: Homo sapiens, NCI-H1650;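 also: growth inhibition of human NCI-H1650 cells measured by a cell viability assay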
# Description: SANGER: Inhibition of human NCI-H1650 cell growth in a cell viability assay.
# NCI-H209 = format: functional, cell-based, Homo sapiens; conditions: Homo sapiens, NCI-H209;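 also: growth inhibition of human NCI-H209 cells, measured by a cell viability assay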
# Description: SANGER: Inhibition of human NCI-H209 cell growth in a cell viability assay.
# D-263MG = format: functional, cell-based, Homo sapiens; conditions: Homo sapiens, D-263MG
# Description: SANGER: Inhibition of human D-263MG cell growth in a cell viability assay.
# IST-MEL1 = format: functional, cell-based, Homo sapiens; conditions: Homo sapiens, IST-MEL1;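 also: growth inhibition of the cell line, read out with a cell viability assay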
# Description: SANGER: Inhibition of human IST-MEL1 cell growth in a cell viability assay.
# MOLT-4 = format: functional, cell-based, Homo sapiens; conditions: Homo sapiens, MOLT-4;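 also: growth inhibition of MOLT-4 cells, determined with a cell viability readout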
# Description: SANGER: Inhibition of human MOLT-4 cell growth in a cell viability assay.
# KARPAS-45 = format: functional, cell-based, Homo sapiens; conditions: Homo sapiens, KARPAS-45;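 also: inhibition of cell line growth, read out through a viability assay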
# Description: SANGER: Inhibition of human KARPAS-45 cell growth in a cell viability assay.
# KNS-81-FD = format: functional, cell-based, Homo sapiens; conditions: Homo sapiens, KNS-81-FD;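 also: growth inhibition of KNS-81-FD cells, read out with a cell viability assay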
# Description: SANGER: Inhibition of human KNS-81-FD cell growth in a cell viability assay.
smiles,measurement,setting,value
NC(=O)c1cccc(-c2cc(Nc3ccc(OC(F)(F)F)cc3)ncn2)c1,IC50,COR-L88,> 1280 nM
same,IC50,MPP-89,> 1280 nM
same,IC50,KNS-42,> 1280 nM
same,IC50,JVM-2,> 1280 nM
same,IC50,EW-11,> 1280 nM
same,IC50,697,> 1280 nM
same,IC50,CTB-1,> 1280 nM
same,IC50,SNU-C2B,> 1280 nM
same,IC50,MZ7-mel,> 1280 nM
same,IC50,SK-N-FI,> 1280 nM
same,IC50,EM-2,235 nM
same,IC50,SNU-5,> 1280 nM
same,IC50,BT-474,> 1280 nM
same,IC50,NCI-H69,> 1280 nM
same,IC50,no-11,> 1280 nM
same,IC50,IA-LM,> 1280 nM
same,IC50,NCI-H1770,> 1280 nM
same,IC50,GI-ME-N,> 1280 nM
same,IC50,A4-Fuk,> 1280 nM
same,IC50,ES6,> 1280 nM
same,IC50,DJM-1,> 1280 nM
same,IC50,CTV-1,> 1280 nM
same,IC50,Lu-65,> 1280 nM
same,IC50,COLO-800,> 1280 nM
same,IC50,KLE,> 1280 nM
same,IC50,SK-N-DZ,> 1280 nM
same,IC50,NCI-H23,> 1280 nM
same,IC50,SNU1,> 1280 nM
same,IC50,UACC-257,> 1280 nM
same,IC50,SF-539,> 1280 nM
same,IC50,SW872,> 1280 nM
same,IC50,MS-1,> 1280 nM
same,IC50,LS-411N,> 1280 nM
same,IC50,J-RT3-T3-5,> 1280 nM
same,IC50,NH-12,> 1280 nM
same,IC50,IST-SL1,> 1280 nM
same,IC50,MFM-223,> 1280 nM
same,IC50,ONS-76,> 1280 nM
same,IC50,U-266,> 1280 nM
same,IC50,LS-1034,> 1280 nM
same,IC50,COLO-668,> 1280 nM
same,IC50,RPMI-8866,> 1280 nM
same,IC50,NB10,> 1280 nM
same,IC50,NCI-H1650,> 1280 nM
same,IC50,NCI-H209,> 1280 nM
same,IC50,D-263MG,> 1280 nM
same,IC50,IST-MEL1,> 1280 nM
same,IC50,MOLT-4,> 1280 nM
same,IC50,KARPAS-45,> 1280 nM
same,IC50,KNS-81-FD,> 1280 nM
COc1cc(N2CCC(N3CCN(C)CC3)CC2)ccc1Nc1ncc(Cl)c(Nc2ccccc2S(=O)(=O)C(C)C)n1 [TAE-684],IC50,COR-L88,> 2000 nM
same,IC50,MPP-89,579 nM
same,IC50,KNS-42,> 2000 nM
same,IC50,JVM-2,> 2000 nM
same,IC50,EW-11,> 2000 nM
same,IC50,697,432 nM
same,IC50,CTB-1,> 2000 nM
same,IC50,SNU-C2B,> 2000 nM
same,IC50,MZ7-mel,> 2000 nM
same,IC50,SK-N-FI,> 2000 nM
same,IC50,EM-2,1850 nM
same,IC50,SNU-5,> 2000 nM
same,IC50,BT-474,> 2000 nM
same,IC50,NCI-H69,1560 nM
same,IC50,no-11,> 2000 nM
same,IC50,IA-LM,> 2000 nM
same,IC50,NCI-H1770,> 2000 nM
same,IC50,GI-ME-N,1250 nM
same,IC50,A4-Fuk,55.7 nM
same,IC50,ES6,776 nM
same,IC50,DJM-1,> 2000 nM
same,IC50,CTV-1,556 nM
same,IC50,Lu-65,> 2000 nM
same,IC50,COLO-800,767 nM
same,IC50,KLE,> 2000 nM
same,IC50,SK-N-DZ,1780 nM
same,IC50,NCI-H23,> 2000 nM
same,IC50,SNU1,> 2000 nM
same,IC50,UACC-257,> 2000 nM
same,IC50,SF-539,< 7.81 nM
same,IC50,SW872,567 nM
same,IC50,MS-1,> 2000 nM
same,IC50,LS-411N,675 nM
same,IC50,J-RT3-T3-5,> 2000 nM
same,IC50,NH-12,> 2000 nM
same,IC50,IST-SL1,> 2000 nM
same,IC50,MFM-223,> 2000 nM
same,IC50,ONS-76,> 2000 nM
same,IC50,U-266,1740 nM
same,IC50,LS-1034,636 nM
same,IC50,COLO-668,> 2000 nM
same,IC50,RPMI-8866,> 2000 nM
same,IC50,NB10,1570 nM
same,IC50,NCI-H1650,> 2000 nM
same,IC50,NCI-H209,> 2000 nM
same,IC50,D-263MG,> 2000 nM
same,IC50,IST-MEL1,> 2000 nM
same,IC50,MOLT-4,> 2000 nM
same,IC50,KARPAS-45,843 nM
same,IC50,KNS-81-FD,> 2000 nM
O=C1NC(=O)c2c1c(-c1ccccc1Cl)cc1[nH]c3ccc(O)cc3c21,IC50,COR-L88,1560 nM
same,IC50,MPP-89,> 2000 nM
same,IC50,KNS-42,> 2000 nM
same,IC50,JVM-2,> 2000 nM
same,IC50,EW-11,> 2000 nM
same,IC50,697,431 nM
same,IC50,CTB-1,242 nM
same,IC50,SNU-C2B,> 2000 nM
same,IC50,MZ7-mel,> 2000 nM
same,IC50,SK-N-FI,> 2000 nM
same,IC50,EM-2,1330 nM
same,IC50,SNU-5,> 2000 nM
same,IC50,BT-474,> 2000 nM
same,IC50,NCI-H69,> 2000 nM
same,IC50,no-11,> 2000 nM
same,IC50,IA-LM,> 2000 nM
same,IC50,NCI-H1770,> 2000 nM
same,IC50,GI-ME-N,1530 nM
same,IC50,A4-Fuk,> 2000 nM
same,IC50,ES6,> 2000 nM
same,IC50,DJM-1,> 2000 nM
same,IC50,CTV-1,> 2000 nM
same,IC50,Lu-65,> 2000 nM
same,IC50,COLO-800,> 2000 nM
same,IC50,KLE,> 2000 nM
same,IC50,SK-N-DZ,> 2000 nM
same,IC50,NCI-H23,> 2000 nM
same,IC50,SNU1,898 nM
same,IC50,UACC-257,> 2000 nM
same,IC50,SF-539,1250 nM
same,IC50,SW872,> 2000 nM
same,IC50,MS-1,771 nM
same,IC50,LS-411N,> 2000 nM
same,IC50,J-RT3-T3-5,1580 nM
same,IC50,NH-12,> 2000 nM
same,IC50,IST-SL1,1460 nM
same,IC50,MFM-223,> 2000 nM
same,IC50,ONS-76,> 2000 nM
same,IC50,U-266,> 2000 nM
same,IC50,LS-1034,> 2000 nM
same,IC50,COLO-668,> 2000 nM
same,IC50,RPMI-8866,> 2000 nM
same,IC50,NB10,> 2000 nM
same,IC50,NCI-H1650,> 2000 nM
same,IC50,NCI-H209,562 nM
same,IC50,D-263MG,> 2000 nM
same,IC50,IST-MEL1,> 2000 nM
same,IC50,MOLT-4,> 2000 nM
same,IC50,KARPAS-45,> 2000 nM
same,IC50,KNS-81-FD,> 2000 nM
